Values quoted from earlier work as cited in patent publication US9617270B2, “Cytotoxic benzodiazepine derivatives” (priority 2012, dated 2017).

Settings: Phase I clinical evaluation

With `C=C1C[C@H]2C=Nc3cc(OCCCOc4cc5c(cc4OC)C(=O)N4CC(=C)C[C@H]4C=N5)c(OC)cc3C(=O)N2C1` [SJG-136] as the molecule, how does the adverse effects noted read?
The adverse effects noted was “vascular leak syndrome, peripheral edema, liver toxicity and fatigue”.

And the maximum tolerated dose?
Its maximum tolerated dose is 45 μg/m^2.

And the “DNA damage in circulating lymphocytes” value (circulating lymphocytes)?
The value was “noted at all doses”.
